This note sets out measurements from patent US20160106439A1, “PNEUMATIC TOURNIQUET” (BIONUMERIK PHARMACEUTICALS, INC., priority 2013, published 2016).

For experiment [1], the system named is bovine brain microtubule protein (α-/β-tubulin). The experiment in a line: Microtubule protein polymerization assay (OD350) and electron microscopy. The experiment is classed as biochemical.
The target of experiment [2] is T1, E13K, D16K, E95K, E103K Thioredoxin (Homo sapiens, UniProt P10599, D16K/E103K/E13K/E95K).
T1 construct: made in house; host or cells: E. coli BL21(DE3), pET-15b system
T1 sequence (P10599 1-105 E13K/D16K/E95K/E103K): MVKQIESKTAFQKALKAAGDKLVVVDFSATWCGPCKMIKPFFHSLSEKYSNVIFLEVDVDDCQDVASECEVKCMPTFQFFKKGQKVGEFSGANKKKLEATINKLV
The experiment in a line: X-ray crystallography of Tavocept-derived mesna adduct on Trx. Format: binding. Conditions: 40 mM Tavocept. On the procedure: Adduct was prepared as described above with some modifications designed to increase the likelihood of success in crystallization of the protein. […] This reaction was incubated for 1 hour at 30° C. followed by overnight incubation at 4° C. […] Aliquots of this solution were analyzed by ESI LC-MS to confirm the presence of adduct(s) prior to initiation of crystallization experiments.
These initial broad screens produced crystals under a wide range of conditions (data not shown) and the screens used included: (i) PEGION, CRYSTALS HT, and PEGRX (Hampton Research) and (ii) JCSG and BASIC (JENA Biosciences). Multiple rounds of optimization were completed and included fine screens, varying the protein concentration and varying the protein to reservoir ratios to obtain diffraction quality crystals. In the Trx pH 9.0/8.5 structure (adduct formed at pH 9.0, crystals grown at pH 8.5), the best crystals were obtained in 20% ethanol, 0.1 M Tris (at 60 mg/mL Trx protein) and diffracted to 2.5 Å (C2 space group). In Trx pH 9.0/7.0 (adduct formed at pH 9.0, crystals grown at pH 7.0), the best crystals were obtained in 20% PEG3350, 0.2 M KCl (60 mg/mL Trx protein) and diffracted to 2.8 Å (C2 space group). In Trx pH 7.0/7.0 (adduct formed at pH 7.0, crystals grown at pH 7.0), the best crystals were obtained in 28% PEG3350, 0.2M KCl (160 mg/mL Trx protein) and diffracted to 1.85 Å resolution (P21 space group).
The solution obtained was consistent with four molecules in the crystal asymmetric unit. […] Molecules C and D were substantially rebuilt and the Tavocept-derived mesna adduct added after protein rebuilding was complete. The structure solution was supported by contiguous electron density for the entire chain trace of each molecule, landmark side chain density features matching the amino acid sequence including cysteines, absence of phi-psi violations, and final R/Rfree values in the normal range. […] For the Trx pH 9.0/8.5 structure, residual density observed near Cys69 of molecule A was modeled as a Tavocept-derived mesna adduct in a dual conformation. […]

Experiment [3] has as its target T2, recombinant human farnesyltransferase (Homo sapiens, UniProt P49354+P49356).
T2 construct: purchased Abcam
In words: Farnesyltransferase Dansyl-GCVLS fluorescence assay. The experiment is classed as biochemical. As to conditions: 25 nM FTase, 3 μM Dansyl-GCVLS, 25° C. The protocol: Tavocept-inhibited human farnesyltransferase-mediated transfer of farnesylpyrophosphate to the cysteine residue in a danyslated peptide substrate of sequence glycine-cysteine-valine-leucine-serine (designated-Dansyl-GCVLS) in vitro. See, FIG. 79. The assay reactions contained 25 nM recombinant human farnesyltransferase (Abcam), 10 μM farnesylpyrophosphate (SigmaAldrich), 3 μM Dansyl-GCVLS (NeoBioScience) in Tris buffer (50 mM, pH 7.5) containing 5 mM MgCl2, 10 μM ZnCl2, and 0.2% octyl-β-D-glucopyranoside. Total assay volumes were 50 μL and the reactions were initiated by the addition of FTase (5 μL of 250 nM stock was added to 45 μL of assay components listed above). The excitation wavelength was 340 nm (a 340 nm filter with 25 nm bandpass) and the emission wavelength was […] (505 nm filter with 20 nm bandpass) and the assay temperature was 25° C. Progress curves of the transfer of the farnesylpyrophosphate to the Dansyl-GCVLS substrate are shown in FIG. 79, Panel A and relative rates of the progress curve were determined and are shown in FIG. 79, Panel B.

Experiment [4] concerns the target T3, Recombinant human Trx (Homo sapiens, UniProt P10599).
T3 sequence (P10599 1-105): T1 sequence (P10599 1-105 E13K/D16K/E95K/E103K) with K13E, K16D, K95E, K103E
In words: IEF PAGE of Trx incubated with Tavocept. As to conditions: Tavocept 10 mM, 37° C. Details: purchased Sigma (SigmaAldrich); host or cells: E. coli. Format: binding.

Experiment [5] concerns the target T3, Recombinant human Trx. In words: LC MS of Trypsin digested Trx after incubation with Tavocept, mesna or glutathione. Details: purchased Sigma (SigmaAldrich); host or cells: E. coli. Conditions: 10 mM, 4 to 6 hours. Format: binding.
Experiment [6] addresses T3, Recombinant human Trx. The experiment is classed as biochemical. Details: 6xHis (N); purchased Sigma (Trx); American Diagnostica (bovine TrxR). As to conditions: Reaction B; disulfide 0.5 mM. The protocol:
See, Luthman M and Holmgren A. Rat liver thioredoxin and thioredoxin reductase: purification and characterization. […] All disulfides were added to reactions as 10x solutions in buffer. The total volume of each reaction was 0.1 mL. Reactions were initiated by the addition of TrxR and were incubated at 25° C. for 40 minutes. Reactions were analyzed using a Molecular Devices SpectraMax Plus UV/vis plate reader and the activity was calculated using a 4 minute linear portion of each assay.

Each structure is given as a SMILES string. Substitutions are numbered along the chain they refer to. “Also recorded” adds a separate entry of the source.

T2 sequence (P49356 whole entry, one chain of several): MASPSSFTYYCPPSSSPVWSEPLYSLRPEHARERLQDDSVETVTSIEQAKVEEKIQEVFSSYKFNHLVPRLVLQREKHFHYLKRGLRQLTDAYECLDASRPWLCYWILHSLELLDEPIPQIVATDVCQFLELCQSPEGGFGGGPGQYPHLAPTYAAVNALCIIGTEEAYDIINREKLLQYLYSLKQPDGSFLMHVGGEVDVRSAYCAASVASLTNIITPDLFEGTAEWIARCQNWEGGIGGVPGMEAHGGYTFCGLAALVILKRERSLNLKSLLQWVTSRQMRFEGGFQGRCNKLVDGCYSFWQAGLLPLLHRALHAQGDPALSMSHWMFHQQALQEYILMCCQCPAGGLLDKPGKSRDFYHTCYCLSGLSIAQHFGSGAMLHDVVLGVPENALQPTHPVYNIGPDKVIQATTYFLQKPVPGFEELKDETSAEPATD

On to `O=S(=O)([O-])CCSSCCS(=O)(=O)[O-].[Na+].[Na+]` [Tavocept, disodium 2,2′-dithio-bis-ethane sulfonate], for which the “effect on paclitaxel-induced hyperpolymerization of MTP” value in experiment [1] was “normalizes”. Further, in experiment [1] (12 mM Tavocept, paclitaxel 10 μM), the “inhibition of paclitaxel promoted microtubule protein polymerization” value is “approximately 50%”. Moreover, the “Tavocept concentration giving final polymerization equal to GTP control” value in experiment [1] (MTP exposed to paclitaxel) was ≥ 6 mM. Moreover, in experiment [1] (paclitaxel 10 μM), the “Tavocept concentration inhibiting paclitaxel (10 μM) promoted hyperpolymerization” value is reported as > 1 mM. The “Tavocept concentration giving net polymerization equivalent to GTP/MgCl2 only control” value in experiment [1] (paclitaxel/GTP/MgCl2 10 μM/1 mM/1 mM) lay in the range of 6 to 8 mM. Also, in experiment [1] (preincubated 20 minutes on ice, with and without paclitaxel, qualitative), the “microtubules visible on electron microscopy grids” value is reported as “reduction in the abundance of microtubules”. In experiment [1] (preincubated with microtubule protein on ice 20 minutes, 37° C.), the “effect on GTP-catalyzed microtubule protein polymerization” value was “dose-dependent inhibitory effect; also recorded: inhibit GTP-catalyzed polymerization; also recorded: concentration dependent manner”. Further, the “Tavocept-derived mesna adduct sites on Trx” value in experiment [2] (Trx pH 7.0/7.0 structure) was “clearly visible on Cys69 in both molecules A and B”; in experiment [2] (Trx pH 9.0/7.0 structure), “clearly visible on both Cys69 and Cys62 in both molecules A and B”; in experiment [2] (Trx pH 9.0/8.5 structure), “clearly visible on Cys69 in both molecules A and B”. Also, the Inhibition of farnesylation entry in experiment [3] is given as “inhibits farnesylation in a concentration-dependent manner”. Moreover, the “Trx migration on IEF gel” value on Recombinant human Trx [4] is on record as “shift in Trx migration”. Also, the “Mesna-Cysteine Adduct Detected?” value is “Yes” at Recombinant human Trx [5] (fragment CMPTFQFFK (cys73)); “No” at Recombinant human Trx [5] (fragment LVVVDFSATWCGPCK (active site cys32 and cys35)); “Yes” at Recombinant human Trx [5] (fragment YSNVIFLEVDVDDCQDVASECEVK (cys62 and cys69)). Moreover, at Recombinant human Trx [6], the “Reduction of disulfide by Trx in the presence of TrxR and NADPH” value was “readily reduced”.
